Consider one compound from US9340555B2, “Compounds as tyrosine kinase modulators” (Allergan, Inc., priority 2009, dated 2016).

The target in one data set is VEGFR2 (Homo sapiens (Human), UniProt P35968). The data set can be described thus: VEGF Stimulated Ca++ Signal In Vitro (Cellular VEGFR2, FLIPR). It is filed as cell-based. The conditions noted are these: HUVEC, VEGF stimulation (5 ng/mL), intracellular calcium. On the technique in general: A change in cytosolic calcium serves as a functional read-out for many receptors and channels.

For data set [1], the target named is human VEGF receptor (VEGFR-2) (Homo sapiens (Human), UniProt P35968). The data set can be described thus: VEGFR2 Kinase Assay (Enzymic VEGFR2). It is filed as biochemical. The conditions noted are these: His-VEGFR-2 cytoplasmic domain, 3.6 µM ATP.
For another data set, the target named is VEGFR1 (Homo sapiens (Human), UniProt P17948). The data set can be described thus: Enzymic VEGFR1. The class given is biochemical.
In the next data set the target is PDGFRβ (Homo sapiens (Human), UniProt P09619). The data set can be described thus: Enzymic PDGFRβ. It is filed as biochemical.
The test system of data set [2] is Rabbit Eye VEGF Permeability. The data set can be described thus: Rabbit Eye VEGF Permeability Model. It is filed as in vivo. The text has this: Rabbit Eye VEGF Permeability Model
Assay used was detailed by Jeffrey Edelman, etc in Exp. Eye. Res. 80 (2005), Pg 249-258.

Sequence of PDGFRβ (P09619 33-1106, species assumed): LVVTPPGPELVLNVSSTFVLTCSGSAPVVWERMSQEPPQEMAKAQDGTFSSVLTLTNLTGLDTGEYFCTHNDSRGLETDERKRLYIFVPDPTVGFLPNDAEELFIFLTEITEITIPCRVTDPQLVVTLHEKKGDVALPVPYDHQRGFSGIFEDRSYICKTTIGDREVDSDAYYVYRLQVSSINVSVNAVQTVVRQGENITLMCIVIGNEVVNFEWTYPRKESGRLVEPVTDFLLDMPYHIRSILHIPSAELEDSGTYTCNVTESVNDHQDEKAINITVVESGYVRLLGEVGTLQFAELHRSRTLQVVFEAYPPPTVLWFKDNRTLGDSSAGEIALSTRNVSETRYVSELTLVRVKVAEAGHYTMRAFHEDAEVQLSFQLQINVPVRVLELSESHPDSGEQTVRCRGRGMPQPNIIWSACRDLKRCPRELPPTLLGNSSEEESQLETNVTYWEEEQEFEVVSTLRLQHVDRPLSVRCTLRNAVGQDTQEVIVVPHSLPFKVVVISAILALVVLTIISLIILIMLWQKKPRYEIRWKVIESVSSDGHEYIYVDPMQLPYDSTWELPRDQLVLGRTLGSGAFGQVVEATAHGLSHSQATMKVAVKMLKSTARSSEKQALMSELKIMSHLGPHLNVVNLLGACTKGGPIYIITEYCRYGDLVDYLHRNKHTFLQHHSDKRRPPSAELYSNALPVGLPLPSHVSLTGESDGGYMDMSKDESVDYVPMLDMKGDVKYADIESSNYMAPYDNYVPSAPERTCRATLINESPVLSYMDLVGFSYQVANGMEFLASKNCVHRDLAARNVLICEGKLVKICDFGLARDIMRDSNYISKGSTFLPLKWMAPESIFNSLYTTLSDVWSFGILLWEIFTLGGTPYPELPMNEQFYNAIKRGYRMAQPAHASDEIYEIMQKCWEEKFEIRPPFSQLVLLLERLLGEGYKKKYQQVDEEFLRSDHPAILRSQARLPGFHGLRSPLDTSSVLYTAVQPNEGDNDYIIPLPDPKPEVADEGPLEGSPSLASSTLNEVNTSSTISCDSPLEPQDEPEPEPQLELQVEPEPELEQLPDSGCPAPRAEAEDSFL
Sequence of VEGFR1 (P17948 27-1338, species assumed): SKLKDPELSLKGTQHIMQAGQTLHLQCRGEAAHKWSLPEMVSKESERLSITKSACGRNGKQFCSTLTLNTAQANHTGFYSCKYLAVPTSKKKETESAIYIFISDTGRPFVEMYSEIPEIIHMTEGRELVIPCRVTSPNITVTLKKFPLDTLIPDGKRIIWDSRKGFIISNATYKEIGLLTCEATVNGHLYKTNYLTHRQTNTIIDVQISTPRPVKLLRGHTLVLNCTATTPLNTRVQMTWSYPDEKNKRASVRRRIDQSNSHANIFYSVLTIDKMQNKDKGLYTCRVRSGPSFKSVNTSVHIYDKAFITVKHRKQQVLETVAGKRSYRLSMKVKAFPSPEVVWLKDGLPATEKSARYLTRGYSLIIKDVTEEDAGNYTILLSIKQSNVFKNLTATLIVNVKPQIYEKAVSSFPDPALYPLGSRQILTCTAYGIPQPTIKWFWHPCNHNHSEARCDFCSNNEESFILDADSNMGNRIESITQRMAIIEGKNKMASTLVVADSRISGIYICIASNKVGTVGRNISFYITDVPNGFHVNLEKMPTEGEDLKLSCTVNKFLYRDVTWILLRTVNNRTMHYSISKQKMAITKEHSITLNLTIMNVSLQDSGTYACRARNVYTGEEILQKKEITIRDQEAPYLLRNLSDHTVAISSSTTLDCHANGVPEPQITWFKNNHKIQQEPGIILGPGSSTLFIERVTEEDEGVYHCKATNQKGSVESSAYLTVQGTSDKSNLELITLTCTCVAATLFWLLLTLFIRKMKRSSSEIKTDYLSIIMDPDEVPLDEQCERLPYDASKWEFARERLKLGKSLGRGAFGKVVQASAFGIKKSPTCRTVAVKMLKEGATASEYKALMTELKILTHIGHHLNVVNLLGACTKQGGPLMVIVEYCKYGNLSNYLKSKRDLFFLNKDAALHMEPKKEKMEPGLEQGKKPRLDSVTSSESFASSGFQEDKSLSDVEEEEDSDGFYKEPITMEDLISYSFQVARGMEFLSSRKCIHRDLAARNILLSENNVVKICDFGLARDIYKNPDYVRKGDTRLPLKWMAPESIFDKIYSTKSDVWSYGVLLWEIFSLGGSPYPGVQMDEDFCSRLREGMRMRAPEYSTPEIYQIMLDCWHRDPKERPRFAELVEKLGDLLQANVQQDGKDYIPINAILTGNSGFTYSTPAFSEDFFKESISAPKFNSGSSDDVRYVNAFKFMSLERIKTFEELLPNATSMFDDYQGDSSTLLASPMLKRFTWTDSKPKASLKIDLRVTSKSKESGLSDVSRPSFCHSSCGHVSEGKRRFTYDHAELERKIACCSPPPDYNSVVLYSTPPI
Sequence of human VEGF receptor (VEGFR-2) (P35968 786-1356): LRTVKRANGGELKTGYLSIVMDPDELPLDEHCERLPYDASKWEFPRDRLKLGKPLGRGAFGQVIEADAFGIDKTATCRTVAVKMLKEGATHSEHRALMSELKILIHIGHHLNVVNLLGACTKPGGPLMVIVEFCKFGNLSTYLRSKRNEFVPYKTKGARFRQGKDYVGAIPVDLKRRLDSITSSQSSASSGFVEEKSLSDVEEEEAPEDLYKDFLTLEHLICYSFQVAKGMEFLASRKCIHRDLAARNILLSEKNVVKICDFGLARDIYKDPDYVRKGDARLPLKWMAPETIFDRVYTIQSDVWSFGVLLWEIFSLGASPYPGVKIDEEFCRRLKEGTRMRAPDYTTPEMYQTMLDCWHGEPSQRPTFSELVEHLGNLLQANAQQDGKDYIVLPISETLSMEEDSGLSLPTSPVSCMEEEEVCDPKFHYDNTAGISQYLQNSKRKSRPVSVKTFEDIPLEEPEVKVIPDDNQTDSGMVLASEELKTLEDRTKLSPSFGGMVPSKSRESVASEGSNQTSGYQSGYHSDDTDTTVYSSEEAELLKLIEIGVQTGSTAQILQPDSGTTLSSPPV
Sequence of VEGFR2 (P35968 20-1356): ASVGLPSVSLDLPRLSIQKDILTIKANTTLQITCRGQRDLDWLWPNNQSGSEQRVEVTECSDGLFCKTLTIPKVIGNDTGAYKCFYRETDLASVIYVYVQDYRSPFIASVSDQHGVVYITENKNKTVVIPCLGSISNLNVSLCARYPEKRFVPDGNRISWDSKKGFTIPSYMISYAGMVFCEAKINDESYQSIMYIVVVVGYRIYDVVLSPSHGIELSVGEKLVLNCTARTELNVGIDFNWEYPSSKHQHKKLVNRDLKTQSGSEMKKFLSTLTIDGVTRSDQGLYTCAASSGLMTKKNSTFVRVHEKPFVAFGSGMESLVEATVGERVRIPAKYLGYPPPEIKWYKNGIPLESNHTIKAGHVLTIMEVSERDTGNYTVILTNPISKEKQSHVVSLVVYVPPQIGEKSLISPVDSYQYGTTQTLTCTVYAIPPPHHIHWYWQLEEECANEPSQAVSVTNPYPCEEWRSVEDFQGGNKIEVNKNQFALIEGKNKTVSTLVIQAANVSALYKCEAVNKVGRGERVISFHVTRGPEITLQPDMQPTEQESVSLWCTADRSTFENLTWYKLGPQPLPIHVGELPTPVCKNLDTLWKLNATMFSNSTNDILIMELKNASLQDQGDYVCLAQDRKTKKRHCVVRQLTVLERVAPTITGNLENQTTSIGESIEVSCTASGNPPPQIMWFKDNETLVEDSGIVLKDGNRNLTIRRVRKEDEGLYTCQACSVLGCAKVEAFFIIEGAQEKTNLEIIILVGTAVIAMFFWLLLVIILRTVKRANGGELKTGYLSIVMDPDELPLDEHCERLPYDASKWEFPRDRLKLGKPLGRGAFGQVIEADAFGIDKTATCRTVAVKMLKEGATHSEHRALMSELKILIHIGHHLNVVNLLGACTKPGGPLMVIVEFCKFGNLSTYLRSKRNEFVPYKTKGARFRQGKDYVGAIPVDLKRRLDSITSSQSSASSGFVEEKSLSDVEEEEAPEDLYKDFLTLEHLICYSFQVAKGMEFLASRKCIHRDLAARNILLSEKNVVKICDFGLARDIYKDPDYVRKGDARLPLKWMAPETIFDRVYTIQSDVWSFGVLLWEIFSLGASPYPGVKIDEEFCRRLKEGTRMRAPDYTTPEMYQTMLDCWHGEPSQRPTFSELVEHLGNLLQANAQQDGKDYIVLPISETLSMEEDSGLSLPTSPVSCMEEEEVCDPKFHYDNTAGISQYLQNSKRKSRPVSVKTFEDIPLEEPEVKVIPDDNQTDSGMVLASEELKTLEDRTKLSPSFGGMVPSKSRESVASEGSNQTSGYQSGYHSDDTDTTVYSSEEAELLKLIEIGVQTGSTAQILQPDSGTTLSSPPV

Regarding `COC(=O)CNCCCNC(=O)c1cc2nccc(Oc3ccc(NC(=O)Nc4cc(C)ccc4F)cc3)c2s1` [Example 18, methyl ({3-[({7-[4-({[(2-fluoro-5-methylphenyl)amino]carbonyl}amino)phenoxy]thieno[3,2-b]pyridin-2-yl}carbonyl)amino]propyl}amino)acetate], the IC50 – broadly, the concentration that inhibits the measured activity by half – at VEGFR2 came to 0.8 nM; in data set [1] it was 3 nM; against VEGFR1 it was 6 nM; at PDGFRβ, 11 nM. Further, the “In Vivo Rabbit Eye VEGF Permeability” value in data set [2] was “Efficacious”.
